Calls of active or inactive are those of the source.
Key:
Format in all cases: functional
[1] = target: Intestinal-type alkaline phosphatase (Homo sapiens, UniProt P09923); assay: inhibition of human intestinal alkaline phosphatase – biochemical, dose response (AID 488876)
[2] = target: T1, Alkaline phosphatase, tissue-nonspecific isozyme (Homo sapiens, UniProt P05186); assay: TNAP enzyme inhibition by screening hits, dose response, selectivity assay for mouse IAP inhibitor project, biochemical, human TNAP, uHTS hits (AID 488906)
T1 sequence (P05186 whole entry): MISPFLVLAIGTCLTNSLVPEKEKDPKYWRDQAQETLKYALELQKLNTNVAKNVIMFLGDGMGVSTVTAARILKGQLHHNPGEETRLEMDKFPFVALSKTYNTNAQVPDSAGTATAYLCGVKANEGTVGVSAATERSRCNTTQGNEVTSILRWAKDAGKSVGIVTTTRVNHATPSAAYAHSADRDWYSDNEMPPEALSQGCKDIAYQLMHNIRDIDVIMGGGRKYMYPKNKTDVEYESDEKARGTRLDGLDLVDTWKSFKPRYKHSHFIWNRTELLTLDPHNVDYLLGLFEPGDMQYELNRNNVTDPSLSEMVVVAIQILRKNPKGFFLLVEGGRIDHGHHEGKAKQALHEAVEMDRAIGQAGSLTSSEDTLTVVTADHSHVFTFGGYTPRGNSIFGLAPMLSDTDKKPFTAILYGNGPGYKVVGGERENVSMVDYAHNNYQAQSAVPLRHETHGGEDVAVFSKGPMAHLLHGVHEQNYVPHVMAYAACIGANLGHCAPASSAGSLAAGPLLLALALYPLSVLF

[3] = target: Intestinal-type alkaline phosphatase (Mus musculus, UniProt P24822); assay: PubChem AID 488785
[4] = insulin promoter down-regulators in MIN6 cells, imaging, high-content screening, mouse beta cells (AID 1628)
[5] = control 3'UTR Renilla luciferase suppression, dose response, counter-screen for Shn3 inhibitor project, cell-based, Clone20-Shn3RL, cherry-picked (AID 624133)
[6] = cytotoxicity in MIN6 insulinoma cells, dose response, cytotoxicity control, cell-based, mouse insulinoma (AID 2122);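 also: confirmatory high-throughput counterscreen run to flag cytotoxic compounds; mouse MIN-6 beta cells carrying an insulin promoter eGFP reporter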
[7] = Shn3 3'UTR reporter inhibitors, dose response, cell-based, Clone20 osteoblasts, firefly luciferase, cherry-picked (AID 624132);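 also: firefly luciferase luminescence from reporter carrying the Shn3 3'UTR in osteoblasts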
[8] = target: Galanin receptor type 2 (Homo sapiens, UniProt O43603); assay: Dose Response cell-based high-throughput screening assay to identify antagonists of galanin receptor 2 (GALR2). [Related pubchem assays: 828, 866 ]
[9] = target: T2, Mu-type opioid receptor (Homo sapiens, UniProt P35372); assay: MOR agonists by imaging, SAR follow-up, image-based (AID 2352)
[10] = target: T3, Kappa-type opioid receptor (Homo sapiens, UniProt P41145); assay: KOR agonist analogs, imaging readout, SAR follow-up, image-based (AID 2359)
[11] = target: T3, Kappa-type opioid receptor; assay: SAR analysis of small molecule agonists of the kappa opioid receptor via a luminescent beta-arrestin assay. [Related pubchem assays (depositor defined):AID1777, AID1786, AID1966, AID2133, AID2136, AID2348, AID2352, AID2357, AID2359, AID2370, AID2420, AID2478, AID2491, AID2492, AID2493, AID2497, AID2498, AID2500, AID449737, AID488822, AID488842]
[12] = target: T4, Delta-type opioid receptor (Homo sapiens, UniProt P41143); assay: DOR antagonists, SAR follow-up, image-based (AID 2357)
[13] = target: T2, Mu-type opioid receptor; assay: MOR antagonists, SAR follow-up, image-based (AID 2420);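 also: compounds added before stimulation of receptor with agonist DAMGO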
[14] = target: T4, Delta-type opioid receptor; assay: DOR agonists, SAR follow-up, image-based (AID 2370)
[15] = target: T3, Kappa-type opioid receptor; assay: KOR antagonists by imaging, SAR follow-up, image-based (AID 2348)

T3 sequence (P41145 whole entry): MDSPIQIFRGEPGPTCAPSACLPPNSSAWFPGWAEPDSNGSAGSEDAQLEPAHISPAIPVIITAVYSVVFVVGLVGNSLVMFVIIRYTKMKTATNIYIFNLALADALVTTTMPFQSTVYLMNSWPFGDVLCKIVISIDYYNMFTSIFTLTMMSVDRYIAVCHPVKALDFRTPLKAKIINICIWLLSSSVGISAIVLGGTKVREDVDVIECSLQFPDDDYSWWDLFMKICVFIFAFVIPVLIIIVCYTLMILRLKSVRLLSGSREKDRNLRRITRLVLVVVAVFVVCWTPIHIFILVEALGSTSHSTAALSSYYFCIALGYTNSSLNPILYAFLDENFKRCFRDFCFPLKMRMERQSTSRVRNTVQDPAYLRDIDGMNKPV
T4 sequence (P41143 whole entry): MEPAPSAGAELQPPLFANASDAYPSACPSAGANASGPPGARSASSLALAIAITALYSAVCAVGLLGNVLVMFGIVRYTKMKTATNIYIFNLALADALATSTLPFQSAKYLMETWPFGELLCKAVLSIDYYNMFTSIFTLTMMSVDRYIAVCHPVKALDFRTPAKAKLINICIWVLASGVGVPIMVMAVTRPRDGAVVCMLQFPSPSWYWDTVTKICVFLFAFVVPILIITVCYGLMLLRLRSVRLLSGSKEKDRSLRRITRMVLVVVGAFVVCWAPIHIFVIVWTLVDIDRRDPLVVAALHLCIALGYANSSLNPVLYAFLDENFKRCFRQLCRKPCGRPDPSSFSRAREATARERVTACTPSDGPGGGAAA
T2 sequence (P35372 whole entry): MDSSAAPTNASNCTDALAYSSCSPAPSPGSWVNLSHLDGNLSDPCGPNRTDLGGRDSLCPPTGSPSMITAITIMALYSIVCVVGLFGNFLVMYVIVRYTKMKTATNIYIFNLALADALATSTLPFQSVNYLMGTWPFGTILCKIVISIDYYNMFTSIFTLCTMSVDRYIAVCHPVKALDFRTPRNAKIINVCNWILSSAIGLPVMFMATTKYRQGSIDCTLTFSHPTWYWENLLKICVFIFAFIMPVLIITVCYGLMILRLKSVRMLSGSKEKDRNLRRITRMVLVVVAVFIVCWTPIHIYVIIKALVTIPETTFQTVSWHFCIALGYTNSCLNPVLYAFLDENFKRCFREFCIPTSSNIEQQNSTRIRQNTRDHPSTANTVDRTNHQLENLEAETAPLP
Intestinal-type alkaline phosphatase (Mus musculus, UniProt P24822), sequence (P24822 whole entry): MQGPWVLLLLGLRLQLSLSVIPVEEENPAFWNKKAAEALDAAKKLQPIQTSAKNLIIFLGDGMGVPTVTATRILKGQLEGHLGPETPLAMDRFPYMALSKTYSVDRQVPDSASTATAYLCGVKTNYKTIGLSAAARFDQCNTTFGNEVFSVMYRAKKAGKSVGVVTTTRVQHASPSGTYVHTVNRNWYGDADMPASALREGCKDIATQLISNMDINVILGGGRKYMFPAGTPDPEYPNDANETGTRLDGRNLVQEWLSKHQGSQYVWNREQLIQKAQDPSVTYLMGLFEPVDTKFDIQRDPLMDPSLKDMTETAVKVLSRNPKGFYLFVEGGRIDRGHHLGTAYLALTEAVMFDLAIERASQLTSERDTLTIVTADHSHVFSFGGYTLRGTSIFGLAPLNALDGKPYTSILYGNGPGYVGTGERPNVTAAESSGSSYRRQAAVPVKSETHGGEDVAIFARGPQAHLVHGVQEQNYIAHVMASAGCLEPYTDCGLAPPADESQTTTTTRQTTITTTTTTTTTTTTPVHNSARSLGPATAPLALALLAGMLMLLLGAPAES
Galanin receptor type 2, sequence (O43603 whole entry): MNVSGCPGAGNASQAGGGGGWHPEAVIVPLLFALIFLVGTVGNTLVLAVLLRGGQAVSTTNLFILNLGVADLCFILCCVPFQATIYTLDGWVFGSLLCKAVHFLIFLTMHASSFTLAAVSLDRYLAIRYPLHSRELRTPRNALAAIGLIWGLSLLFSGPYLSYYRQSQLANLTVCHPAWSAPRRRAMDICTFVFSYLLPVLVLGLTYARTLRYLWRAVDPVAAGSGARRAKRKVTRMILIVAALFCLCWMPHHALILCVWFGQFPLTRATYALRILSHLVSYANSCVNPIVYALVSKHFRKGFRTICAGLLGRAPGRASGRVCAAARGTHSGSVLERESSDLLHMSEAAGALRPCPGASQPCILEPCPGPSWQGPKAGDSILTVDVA
Intestinal-type alkaline phosphatase (Homo sapiens, UniProt P09923), sequence (P09923 whole entry): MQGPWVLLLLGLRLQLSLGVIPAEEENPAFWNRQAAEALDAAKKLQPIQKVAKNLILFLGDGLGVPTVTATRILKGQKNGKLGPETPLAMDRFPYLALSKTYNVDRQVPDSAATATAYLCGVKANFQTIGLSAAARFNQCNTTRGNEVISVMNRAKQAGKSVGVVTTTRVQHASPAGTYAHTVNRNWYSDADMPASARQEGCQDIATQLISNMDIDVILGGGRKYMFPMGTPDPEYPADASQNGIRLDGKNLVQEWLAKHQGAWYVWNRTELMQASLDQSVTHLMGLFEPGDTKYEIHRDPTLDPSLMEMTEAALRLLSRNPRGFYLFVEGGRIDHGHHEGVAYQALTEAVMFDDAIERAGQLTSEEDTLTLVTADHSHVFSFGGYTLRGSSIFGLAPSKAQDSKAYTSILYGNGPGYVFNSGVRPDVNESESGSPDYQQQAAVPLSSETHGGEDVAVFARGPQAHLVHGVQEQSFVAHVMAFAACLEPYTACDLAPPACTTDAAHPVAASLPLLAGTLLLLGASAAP

For `CN(CC(=O)NC(c1ccccc1)c1ccccc1)Cc1nc(O)c2ccccc2n1`, the IC50 [1] was 26.6 µM (active), the IC50 [2] was 74.2 µM (active) and the IC50 [3] was 7.93 µM (active).
For `COC(=O)c1ccc(COC(=O)c2[nH]c(C)c(C(C)=O)c2C)o1`, the IC50 [4] was 2.72 µM (active), the AC50 [5] was 2.46 µM (active) and the IC50 [6] was 3.23 µM (active). For the same compound, the AC50 [7] was 2.58 µM (active) and the IC50 [8] was > 42 µM (not active).
In the case of `CCCCN(Cc1cc2cc(OC)ccc2[nH]c1=O)C(=O)c1ccccn1`, the EC50 [9] is reported as > 32 µM (inactive), the EC50 [10] is reported as 19.9 µM (inactive) and the EC50 [11] is reported as > 10 µM (inactive). The IC50 [12] was > 32 µM (inactive), the IC50 [13] was > 32 µM (inactive) and the EC50 [14] was > 32 µM (inactive). The IC50 [15] was > 32 µM (inactive).

Source: ChEMBL document CHEMBL1201862, “PubChem BioAssay data set” (2004)
